# Source: patent US20230233550A1, “TREATMENT FOR THE INFLAMMATORY BOWEL DISEASE” (priority 2020, published 2023)
# Legend:
# DSS-induced colitis = experiment: DSS-induced colitis; type: in vivo, male C57 mice
# Protocol: The 8 to 10 week old male C57 mice (18-20 g) were used in the study. Animals were divided into two experimental groups: vehicle control and compound of formula (Ia). Same day animals were provided 2% dextran sulfate sodium (DSS) solution in water for 7 days. Animals were treated with vehicle or compound of formula (Ia) (15 mg/kg) by oral route daily for 10 days. Body weight was recorded daily for 10 days. Disease activity score was evaluated based on stool consistency and rectal bleeding (Kim JJ et al., 2012). Relative colon length was measured. Colon myeloperoxidase (MPO) activity was estimated (Kim JJ et al., 2012).
# TNBS-induced colitis = experiment: TNBS-induced colitis; type: in vivo, Female BalbC mice; settings: 15 mg/kg orally, Balb/c mice
# Protocol: Female BalbC mice (6-8 weeks old) were used in the study. Mice were sensitized by topical application of 1% trinitrobenzene sulfonic acid (TNBS) in acetone/olive oil solution (4:1). After 7 days of sensitization, mice were challenged with 2.5% TNBS solution by intra-rectal route administered 5 mL/kg of body weight under anesthesia. Mice were monitored for development of disease over 5 days. TNBS-treated mice were randomly divided into 2 groups: TNBS-control (TNBS) and TNBS + compound of formula (Ia) (15 mg/kg, orally). Treatment was started on one day before TNBS challenge (2.5 %) and continued up to day 5 after TNBS challenge (2.5%). Animals were monitored for body weight change daily for 5 days. Intestinal permeability was estimated by Evans blue method (Han ED et al., 2002).
smiles,measurement,setting,value
"O=C(O)CNC(=O)c1c(O)c2ccccc2n(OCC2CC2)c1=O [Compound of formula (Ia), Desidustat]",reduction of colon MPO against vehicle control,"DSS-induced colitis; 15 mg/kg oral daily for 10 days, colon myeloperoxidase activity",74.9 ± 5.0%
same,decrease in disease activity score when compared with vehicle control,"DSS-induced colitis; 15 mg/kg oral daily for 10 days, score based on stool consistency and rectal bleeding",31.8 ± 9.8%
same,increase in body weight against vehicle control,"DSS-induced colitis; 15 mg/kg oral daily, after ten days of treatment, 2% DSS for 7 days",49.0 ± 12.9%
same,weight gain when compared with vehicle control,TNBS-induced colitis; 5th day after TNBS challenge,17.4 ± 1.4%
same,decrease in intestinal permeability when compared against vehicle control,TNBS-induced colitis; Evans blue method,51.7 ± 4.4%
